Results reported in US9879303B2, “Chromogenic glucuronidase substrates and uses” (Glycosynth Limited, priority 2013, dated 2018).
Where a name gives a salt, the structure may show the parent alone.

Columns and labels:
E. faecium NCTC 7171 = experiment: screen of strains on agar plates (CPS ID 3 or Columbia agar); type: cell-based; parameters: key: Red, Green, Black or Purple mean strong colour; Red, Green, Black or Purple mean strong colour; Red, Green, Black or Purple mean strong colour; Red, Green, Black or Purple mean strong colour; +/− means less colour than strong; Tr means a trace of colour, less than +/−; — means no colour; conditions: 37° C. 18 hours
E. cloacae = experiment: screen of strains in broth medium containing FAC; type: cell-based; parameters: key: Red, Green, Black or Purple mean strong colour; Red, Green, Black or Purple mean strong colour; Red, Green, Black or Purple mean strong colour; Red, Green, Black or Purple mean strong colour; +/− means less colour than strong; Tr means a trace of colour, less than +/−; — means no colour
[1] = E. cloacae 260329R, 37° C. 18 hours
[2] = E. cloacae NCTC 11936, 37° C. 18 hours

Row | SMILES | colour (E. faecium NCTC 7171) | colour (E. cloacae; [1]) | colour (E. cloacae; [2])
1 | O=C(O)[C@H]1O[C@@H](Oc2c[nH]c3ccc(Br)c(Cl)c23)[C@H](O)[C@@H](O)[C@@H]1O [X-β-D-glucuronide CHA salt, 5-bromo-4-chloro-3-indolyl β-D-glucuronide] | — |  | 
2 | O=C(O)C1OC(Oc2cc3ccccc3cc2O)C(O)C(O)C1O [Compound 2b, DHN-β-D-Glucuronide CHA Salt] |  | — | —
3 | O=C(O)[C@H]1O[C@@H](Oc2c[nH]c3cc(Cl)ccc23)[C@H](O)[C@@H](O)[C@@H]1O [Rose-β-D-glucuronide CHA salt, 6-chloro-3-indolyl β-D-glucuronide] | — |  | 
4 | O=C(O)C1OC(Oc2ccccc2O)C(O)C(O)C1O [Compound 1, Catechol β-D-Glucuronide CHA Salt] |  | — | —
